According to PubChem BioAssay AID256 (DTP/NCI, 2004):
“And” between values parts separate entries of the source, which are not always exact repeats. Equal values may be shown once. Inconclusive results and toxic doses are left out. Rule for the calls: active = survival T/C of 150% or more; inactive = T/C below 125% in these data.

Test system: CD2F1 mice, L1210 leukemia ip, survival T/C
Experiment: NCI In Vivo Anticancer Drug Screen. Data for tumor model L1210 Leukemia (intraperitoneal) in CD2F1 (CDF1) mice
Conditions: endpoint: mean survival time, higher = longer survival
Method in brief: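 Tumor-bearing mice (transplanted tumor) were split into treated and vehicle control groups, and the measured endpoint of each treated group was divided by that of its vehicle controls.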

[1] = dose: 50.0 mg/kg/injection, schedule: Q01DX001 (ip), vehicle: saline with Tween-80
[2] = dose: 25.0 mg/kg/injection, schedule: Q01DX009 (ip), vehicle: saline with Tween-80
[3] = dose: 50.0 mg/kg/injection, schedule: Q01DX009 (ip), vehicle: saline with Tween-80
[4] = dose: 100.0 mg/kg/injection, schedule: Q01DX009 (ip), vehicle: saline with Tween-80
[5] = dose: 100.0 mg/kg/injection, schedule: Q04DX002 (ip), vehicle: saline with Tween-80
[6] = dose: 100.0 mg/kg/injection, schedule: Q04DX003 (ip), vehicle: saline
[7] = dose: 200.0 mg/kg/injection, schedule: Q04DX003 (ip), vehicle: saline
[8] = dose: 200.0 mg/kg/injection, schedule: Q01DX009 (ip), vehicle: saline with Tween-80
[9] = dose: 100.0 mg/kg/injection, schedule: Q04DX003 (ip), vehicle: saline with Tween-80
[10] = dose: 200.0 mg/kg/injection, schedule: Q04DX003 (ip), vehicle: saline with Tween-80
[11] = dose: 400.0 mg/kg/injection, schedule: Q04DX003 (ip), vehicle: saline with Tween-80
[12] = dose: 400.0 mg/kg/injection, schedule: Q01DX009 (ip), vehicle: saline with Tween-80
[13] = dose: 100.0 mg/kg/injection, schedule: Q01DX001 (ip), vehicle: saline with Tween-80
[14] = dose: 400.0 mg/kg/injection, schedule: Q01DX001 (ip), vehicle: saline with Tween-80

Measured: T/C

C1=C(c2ccccc2)NN=C(c2ccccc2)C1c1ccccc1 (centres undefined)
inactive: dose: 1.56 mg/kg/injection, schedule: Q01DX001 (ip), vehicle: saline with Tween-80 103 % of control | dose: 1.56 mg/kg/injection, schedule: Q01DX009 (ip), vehicle: saline with Tween-80 98 % of control | dose: 3.13 mg/kg/injection, schedule: Q01DX001 (ip), vehicle: saline with Tween-80 101 % of control | dose: 3.13 mg/kg/injection, schedule: Q01DX009 (ip), vehicle: saline with Tween-80 102 % of control | dose: 6.25 mg/kg/injection, schedule: Q01DX001 (ip), vehicle: saline with Tween-80 94 % of control | dose: 6.25 mg/kg/injection, schedule: Q01DX009 (ip), vehicle: saline with Tween-80 98 % of control | [1] 87 % of control

COc1ccccc1NC(=O)Oc1ccccc1-c1ccccc1
inactive: [2] 93 % of control | dose: 25.0 mg/kg/injection, schedule: Q04DX002 (ip), vehicle: saline with Tween-80 98 % of control | [3] 93 % of control | dose: 50.0 mg/kg/injection, schedule: Q04DX002 (ip), vehicle: saline with Tween-80 110 % of control | [4] 93 % of control | [5] 87 % of control and 104 % of control

CC12CCCC1=[N+]1CCCCC1CC2=O (centres undefined)
inactive: [6] 101 % of control | [7] 101 % of control

O=C1c2cccc(Cl)c2C(=O)c2c1cccc2[N+](=O)[O-]
inactive: dose: 100.0 mg/kg/injection, schedule: Q04DX003 (ip), vehicle: Klucel (hydroxypropylcellulose) (HPC) 90 % of control | dose: 200.0 mg/kg/injection, schedule: Q04DX003 (ip), vehicle: Klucel (hydroxypropylcellulose) (HPC) 102 % of control | dose: 400.0 mg/kg/injection, schedule: Q04DX003 (ip), vehicle: Klucel (hydroxypropylcellulose) (HPC) 98 % of control

CN(C)C1c2ccccc2-c2ccc(F)cc21 (centres undefined)
inactive: dose: 50.0 mg/kg/injection, schedule: Q01DX001 (ip), vehicle: carboxymethylcellulose (CMC) 107 % of control | dose: 100.0 mg/kg/injection, schedule: Q01DX001 (ip), vehicle: carboxymethylcellulose (CMC) 113 % of control

Cc1ccc(Cl)c(I)c1
inactive: dose: 100.0 mg/kg/injection, schedule: Q01DX001 (ip), vehicle: Klucel (hydroxypropylcellulose) (HPC) 101 % of control | dose: 200.0 mg/kg/injection, schedule: Q01DX001 (ip), vehicle: Klucel (hydroxypropylcellulose) (HPC) 103 % of control | dose: 400.0 mg/kg/injection, schedule: Q01DX001 (ip), vehicle: Klucel (hydroxypropylcellulose) (HPC) 106 % of control

CC1(O)Nc2nc3nc[nH]c3c(=O)n2C1O (centres undefined)
inactive: dose: 12.5 mg/kg/injection, schedule: Q01DX005 (ip), vehicle: water 94 % of control | dose: 25.0 mg/kg/injection, schedule: Q01DX005 (ip), vehicle: water 90 % of control | dose: 50.0 mg/kg/injection, schedule: Q01DX005 (ip), vehicle: water 100 % of control | dose: 100.0 mg/kg/injection, schedule: Q01DX005 (ip), vehicle: water 94 % of control | dose: 200.0 mg/kg/injection, schedule: Q01DX005 (ip), vehicle: water 93 % of control

O=CN(O)CC(=O)O.[Cu]
inactive: dose: 3.12 mg/kg/injection, schedule: Q01DX009 (ip), vehicle: acetone 95 % of control | dose: 6.25 mg/kg/injection, schedule: Q01DX009 (ip), vehicle: acetone 101 % of control | dose: 12.5 mg/kg/injection, schedule: Q04DX003 (ip), vehicle: saline 100 % of control

Cc1cc(C=O)c(C)n1-c1ccc(C(=O)O)cc1
inactive: [3] 101 % of control | [4] 93 % of control | [8] 101 % of control

NC(=O)/C=C1\NC(=O)CS1
inactive: dose: 100.0 mg/kg/injection, schedule: Q01DX009 (ip), vehicle: saline sonified 97 % of control | [9] 100 % of control | dose: 200.0 mg/kg/injection, schedule: Q01DX009 (ip), vehicle: saline sonified 103 % of control | [10] 91 % of control | dose: 400.0 mg/kg/injection, schedule: Q01DX009 (ip), vehicle: saline sonified 88 % of control | [11] 102 % of control

ClC1=C(Cl)C2(Cl)C3C4CCC(C4)C3C1(Cl)C2(Cl)Cl (centres undefined)
inactive: [4] 95 % of control and 107 % of control | [8] 93 % of control and 111 % of control | [12] 96 % of control and 105 % of control

COc1ccc(CCNC(=O)Cc2ccc(OC)c(OC)c2)cc1OC
inactive: dose: 50.0 mg/kg/injection, schedule: Q04DX003 (ip), vehicle: saline 93 % of control | [6] 96 % of control | [7] 96 % of control

CCOC(=O)c1ccc(NC(=O)N2CCC(CCCc3ccccc3)CC2)cc1
inactive: [1] 100 % of control | [13] 88 % of control and 98 % of control | [4] 87 % of control and 91 % of control | [5] 91 % of control and 95 % of control | [9] 98 % of control | [8] 87 % of control and 93 % of control | dose: 200.0 mg/kg/injection, schedule: Q04DX002 (ip), vehicle: saline with Tween-80 91 % of control | [10] 87 % of control | [14] 88 % of control and 94 % of control | [12] 93 % of control | dose: 400.0 mg/kg/injection, schedule: Q04DX002 (ip), vehicle: saline with Tween-80 90 % of control | [11] 90 % of control

C=C1CC2(CCC23COC(=O)C3=C)OC1=O (centres undefined)
inactive: dose: 0.78 mg/kg/injection, schedule: Q01DX009 (ip), vehicle: other 107 % of control | dose: 0.78 mg/kg/injection, schedule: Q04DX002 (ip), vehicle: other 100 % of control | dose: 0.78 mg/kg/injection, schedule: Q04DX003 (ip), vehicle: other 100 % of control | dose: 1.56 mg/kg/injection, schedule: Q01DX009 (ip), vehicle: other 102 % of control | dose: 1.56 mg/kg/injection, schedule: Q04DX002 (ip), vehicle: other 105 % of control | dose: 1.56 mg/kg/injection, schedule: Q04DX003 (ip), vehicle: other 108 % of control | dose: 3.12 mg/kg/injection, schedule: Q01DX009 (ip), vehicle: other 95 % of control | dose: 3.12 mg/kg/injection, schedule: Q04DX002 (ip), vehicle: other 105 % of control | dose: 3.12 mg/kg/injection, schedule: Q04DX003 (ip), vehicle: other 102 % of control | dose: 6.25 mg/kg/injection, schedule: Q01DX009 (ip), vehicle: other 107 % of control | dose: 6.25 mg/kg/injection, schedule: Q04DX002 (ip), vehicle: other 109 % of control | dose: 6.25 mg/kg/injection, schedule: Q04DX003 (ip), vehicle: other 105 % of control | dose: 12.5 mg/kg/injection, schedule: Q01DX001 (ip), vehicle: other 107 % of control

CN=C1CCCCN1
inactive: dose: 100.0 mg/kg/injection, schedule: Q04DX003 (ip), vehicle: saline sonified 103 % of control | dose: 200.0 mg/kg/injection, schedule: Q04DX003 (ip), vehicle: saline sonified 104 % of control | dose: 400.0 mg/kg/injection, schedule: Q04DX003 (ip), vehicle: saline sonified 103 % of control

COc1ccc(C=Nc2ccccc2)cc1
inactive: [4] 95 % of control | [8] 89 % of control | [12] 89 % of control

C=C(C)C1(Cc2ccccc2)C(=O)NC(=S)NC1=O
inactive: dose: 5.0 mg/kg/injection, schedule: Q01DX001 (ip), vehicle: saline 102 % of control | dose: 10.0 mg/kg/injection, schedule: Q01DX001 (ip), vehicle: saline 102 % of control | dose: 20.0 mg/kg/injection, schedule: Q01DX001 (ip), vehicle: saline 104 % of control

Cc1cc(Br)c2ccccc2c1N(CC(=O)O)S(=O)(=O)c1ccccc1
inactive: dose: 12.5 mg/kg/injection, schedule: Q01DX009 (ip), vehicle: saline with Tween-80 103 % of control | [2] 103 % of control | [3] 94 % of control

CCCCCCCCCCCCCCCCSC(=S)OCC
inactive: [13] 95 % of control | [4] 96 % of control | dose: 200.0 mg/kg/injection, schedule: Q01DX001 (ip), vehicle: saline with Tween-80 87 % of control | [8] 95 % of control | [14] 95 % of control | [12] 95 % of control
